Where a SMILES comes first, the peptide text is derived from it. [ ]: non-standard residue; d: D form. The star is where a group is joined. dNle = CCCC[C@@H](N)C(=O)O; Hexanoyl = CCCCCC(=O)*; Ahx = NCCCCCC(=O)O
Tests used:
[1] = Stability of Dihexa in the blood (not shown); format: in vitro ADME
Met = assay: Inhibition of HGF-dependent Met phosphorylation in HEK293 cells; format: cell-based, human; details: 10 min
Method: HEK293 cells were seeded in 6 well tissue culture plates and grown to 95% confluency in DMEM containing 10% FBS. The cells were serum deprived for 24 h prior to the treatment to reduce the basal levels of phospho-Met. Following serum starvation, cocktails comprised of vehicle and HGF with/without 6-AH analogs were prepared and pre-incubated for 30 min at room temperature. The cocktail was then added to the cells for 10 min to stimulate the Met receptor and downstream proteins. Cells were harvested using RIPA lysis buffer (Millipore; Billerica, Mass.) fortified with phosphatase inhibitor cocktails 1 and 2 (Sigma-Aldrich; St. Louis, Mo.). The lysate was clarified by centrifugation at 15,000 nx g for 15 min, protein concentrations were determined using the BCA total protein assay (Pierce), and then appropriate volumes of the lysates were diluted with 2× reducing Laemmli buffer and heated for ten min at 95° C. Samples containing identical amounts of protein were resolved using SDS-PAGE (Criterion, BioRad Laboratories), transferred to nitrocellulose, and blocked in Tris-buffered saline (TBS) containing 5% milk for 1 h at room temperature. The phospho-Met antibody were added to the blocking buffer at a final concentration of 1:1000 and incubated at 4° C. overnight with gentle agitation. The membranes were then washed several times with water and TBS ([…], 0.05% Tween-20), a 1:5000 dilution of horseradish-peroxidase conjugated goat anti-rabbit antiserum was added, and the membranes further incubated for 1 h at room temperature. Proteins were visualized using the Supersignal West Pico Chemiluminescent Substrate system (Pierce, Fenton, Mo.) and molecular weights determined by comparison to protein ladders (BenchMark, Invitrogen, and Kaleidoscope, BioRad). Film images were digitized and analyzed using a UVP phosphoimager.

MDCK cells [2] = assay: HGF-dependent MDCK cell proliferation (MTT); format: cell-based, canine; details: analog 10^−10M, 4 days
Method: 5000 MDCK cells were seeded into the wells of a 96 well plates in 10% FBS DMEM. To induce cellular quiescence, the cells were serum deprived for 24 h prior to initiating the treatments. Following serum starvation, 10 ng/ml HGF alone and with various concentrations of 6-AH analogs or PBS vehicle were added to the media. The cells were allowed to grow under these conditions for 4 days with a daily addition of 6-AH analogs. On the fourth day, 1 mg/ml of […] (MTT, Sigma-Aldrich) prepared in PBS was added to the cells and incubated for 4 h. Dimethyl sulfoxide diluted in a 0.01M glycine buffer was added to solubilize the cell membranes and the absorbance of reduced MTT in the buffer was quantitated at 590 nm using a plate reader (Biotek Synergy 2, Winooski, Vt.). HGF-dependent proliferation was determined by subtracting the basal proliferation (in the absence of HGF) from total proliferation rates in groups containing HGF.

MDCK cells [3] = assay: Inhibition of HGF-dependent scattering in MDCK cells; format: cell-based, canine; details: 20 ng/ml HGF, 48 h
Method: (§1) MDCK cells were grown to 100% confluency on the coverslips in six-well plates and washed twice with PBS. The confluent coverslips were then aseptically transferred to new six well plates containing 900 μl serum free DMEM. Norleual, Hinge peptide, and/or HGF (20 ng/ml) were added to appropriate wells. Control wells received PBS vehicle. Plates were incubated at 37° C. with 5% CO2 for 48 hours. Media was removed and cells were fixed with methanol. Cells were stained with Diff-Quik Wright-Giemsa (Dade-Behring, Newark, Del.) and digital images were taken. Coverslips were removed with forceps and more digital images were captured. Pixel quantification of images was achieved using Image J and statistics were performed using Prism 5 and InStat v.3.05.
as §1, with “h.” for “hours.”, “v.3.05 (GraphPad; San Diego, Calif.).” for “v.3.05.”

[4] = tested on: B16-F10 murine melanoma cells; assay: B16-F10 melanoma lung colony formation; format: in vivo; details: daily IP 10 μg/kg/day and 100 μg/kg/day, 14 days, C57BL/6 mice
Method: Six to eight month old C57BL/6 mice were injected with 400,000 B16-F10 cells in 200 μl PBS by tail vein injection and subsequently received daily intraperitoneal injections of either D-Nle-X-Cys-NH—(CH2)5—CONH2 (10 μg/kg and 100 μg/kg) or a PBS vehicle control. Two weeks later, mice were anesthetized and lungs were perfused with PBS and removed. Photos were taken and lungs were solubilized in 1% Triton x-100, 20 mM Tris, 0.15 M NaCl, 2 mM EDTA, and 0.02% sodium azide. Samples were disrupted by sonication (Mixonix, Farmingdale, N.Y.) and spun. The supernatant was transferred to a 96 well plate and melanin absorbance at 410 nm was measured using a plate reader.

[5] = Blood stability studies (heparinized rat blood, 37° C.); format: in vitro ADME; details: heparinized whole blood, single phase exponential decay, read-out: stability t1/2 in blood
[6] = rat, iv, 24 mg/kg
in vivo = details: male, Sprague-Dawley, rat, iv, 24 mg/kg

| half-life [5] [h] | t½ (in vivo elimination half-life) ([6]; male, Sprague-Dawley) [h] | KE ([6]; in vivo) [min⁻¹] | AUC(0-inf) (in vivo) [ng·h/mL] | Vd (in vivo) [L/kg] | clearance (in vivo) [mL/min/kg] | half-life (in vivo) [h] | SMILES | stable in the blood [1] | inhibition of HGF-dependent Met auto-phosphorylation (Met) | inhibition of HGF-dependent MDCK cell proliferation (MDCK cells [2]) | inhibition of HGF-dependent MDCK cell scattering (MDCK cells [3]) | inhibition of B16-F10 melanoma lung colonization [4] | inhibition of B16-F10 melanoma lung colonization ([4]; listed as D-Nle-Cys-Ile-(6)-amino-hexanoic amide) |
| --- | --- | --- | --- | --- | --- | --- | --- | --- | --- | --- | --- | --- | --- |
| – | – | – | – | – | – | – | CCCCCC(=O)N[C@@H](Cc1ccc(O)cc1)C(=O)N[C@H](C(=O)NCCCCCC(N)=O)[C@@H](C)CC [Dihexa, N-hexanoic-Tyr-Ile-(6)-aminohexanoic amide] (Hexanoyl-Tyr-Ile-[Ahx]-NH2) | over 5 hours | – | – | – | – | – |
| – | – | – | – | – | – | – | CCCC[C@@H](N)C(=O)N[C@@H](CS)C(=O)N[C@H](C(=O)NCCCCCC(N)=O)[C@@H](C)CC [D-Nle-Cys-Ile-NH—(CH2)5—CONH2] (H-[dNle]CI[Ahx]-NH2) | – | able to block Met auto-phosphorylation | marked inhibitory activity | different from the HGF alone group but not different from the control group | radically prevented lung colonization | obvious reduction in melanoma colonies |
| 1.33 | 16.867 ± 6.523 | 0.001 ± 0.0002 | 11500 | 104 ± 65 | 58.3 ± 15.6 | 16.9 | CCCC[C@@H](N)C(=O)N[C@@H](Cc1ccc(O)cc1)C(=O)N[C@H](C(=O)NCCCCCC(N)=O)[C@@H](C)CC (H-[dNle]YI[Ahx]-NH2) | – | able to block Met auto-phosphorylation | marked inhibitory activity | different from the HGF alone group but not different from the control group | – | – |
